The results in this text go back to patent US10179791B2, “Spiro-cyclic amine derivatives as S1P modulators” (AbbVie B.V., priority 2010, dated 2019).

Counter-ions that a name gives are not always drawn. A value given as a limit tells only on which side of the number the result lay.

Type in all cases: cell-based
One assay addresses human S1P1 (Homo sapiens (Human), UniProt P21453). Kind of assay: In vitro functional activity (agonism) on human S1P1 receptors (method B), CHO-K1-human S1P1-cAMP assay. The conditions noted are these: agonism, determined using method B (cAMP HTRF with Forskolin, CHO-K1 cells); read-out: S1P1^B pEC50 (converted). Here is the method: In Vitro Functional Activity (Agonism) on Human S1P1 Receptors (Method B)
Recombinant CHO-K1 cells expressing human S1P1, grown to mid-log Phase in culture media without antibiotics, detached, centrifuged and re-suspended. For agonist testing cells are mixed with compound and Forskolin and incubated at room temperature. Cells are lyses and cAMP concentration are estimated, according to the manufacturer specification, With the HTRF kit from CIS-BIO International (cat no 62AM2PEB).
Compounds were tested at a 10 points half log concentration range duplicated in 1 experiment.
Background: Changes in cAMP serve as a functional read-out for many G protein-coupled receptors.

The next assay has as its target human S1P5 receptor (Homo sapiens (Human), UniProt Q9H228). Description: In vitro functional activity (agonism) on human S1P5 receptors, CHO-human-S1P5-Aequorin assay. The conditions noted are these: aequorin luminescence, CHO cells, 3 independent experiments. The source says: In Vitro Functional Activity (Agonism) on Human S1P5 Receptors
(§1) The CHO-human-S1P5-Aeqorin assay was bought from Euroscreen, Brussels (Euroscreen, Technical dossier, Human Lysophospholid S1P5 (Edg8) receptor, DNA clone and CHO AequoScreen™ recombinant cell-line, catalog no: ES-593-A, September 2006). Human-S1P5-Aequorin cells express mitochondrial targeted apo-Aequorin. Cells have to be loaded with coelanterazine, in order to reconstitute active Aequorin. After binding of agonists to the human S1P5 receptor the intracellular calcium concentration increases and binding of calcium to the apo-Aequorin/coelenterazine complex leads to an oxidation reaction of coelenterazine, which results in the production of apo-Aequorin, coelenteramide, CO2 and light ([…]max 469 nm). This luminescent response is dependent on the agonist concentration. Luminescence is measured using the MicroBeta Jet (Perkin Elmer). Agonistic effects of compounds are expressed as pEC50. Compounds were tested at a 10 points half log concentration range, and 3 independent experiments were performed in single point's measurements.

The target of a further assay is human S1P3 receptor (Homo sapiens (Human), UniProt Q99500). Kind of assay: In vitro functional activity (agonism) on human S1P3 receptors, CHO-human-S1P3-Aequorin assay. The following applies: aequorin luminescence, CHO K1 cells, 3 independent experiments, read-out: S1P3 pEC50 (converted).
Chain of human S1P3 receptor (Q99500 whole entry): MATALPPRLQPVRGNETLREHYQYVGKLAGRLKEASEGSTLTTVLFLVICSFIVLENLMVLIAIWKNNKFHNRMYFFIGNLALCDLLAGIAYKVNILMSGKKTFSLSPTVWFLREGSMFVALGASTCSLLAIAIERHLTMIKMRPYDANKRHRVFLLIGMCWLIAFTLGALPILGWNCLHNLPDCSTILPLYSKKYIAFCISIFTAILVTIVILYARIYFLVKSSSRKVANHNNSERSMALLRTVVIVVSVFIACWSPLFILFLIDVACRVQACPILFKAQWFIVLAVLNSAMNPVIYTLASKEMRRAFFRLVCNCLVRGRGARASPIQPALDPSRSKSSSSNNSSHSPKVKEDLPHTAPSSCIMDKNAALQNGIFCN
From the text: In Vitro Functional Activity (Agonism) on Human S1P3 Receptors
The CHO-human-S1P3-Aeqorin assay (CHO/Gα16/AEQ/h-S1P3) was established at Solvay Pharmaceuticals. The plasmid DNA coding for the S1P3 receptor (accession number in GenBank NM_005226 was purchased from UMR cDNA resource Centre (Rolla, Mo.). The pcDNA3.1/hS1P3 construct carrying the mitochondrially targeted apo-Aeqorin and Gal6 protein was transfected in CHO K1 cell-line.
as §1, with “Human-S1P3-Aequorin” for “The CHO-human-S1P5-Aeqorin assay was bought from Euroscreen, Brussels (Euroscreen, Technical dossier, Human Lysophospholid S1P5 (Edg8) receptor, DNA clone and CHO AequoScreen™ recombinant cell-line, catalog no: ES-593-A, September 2006). Human-S1P5-Aequorin”, “S1P3” for “S1P5”

Chain of human S1P1 (P21453 whole entry): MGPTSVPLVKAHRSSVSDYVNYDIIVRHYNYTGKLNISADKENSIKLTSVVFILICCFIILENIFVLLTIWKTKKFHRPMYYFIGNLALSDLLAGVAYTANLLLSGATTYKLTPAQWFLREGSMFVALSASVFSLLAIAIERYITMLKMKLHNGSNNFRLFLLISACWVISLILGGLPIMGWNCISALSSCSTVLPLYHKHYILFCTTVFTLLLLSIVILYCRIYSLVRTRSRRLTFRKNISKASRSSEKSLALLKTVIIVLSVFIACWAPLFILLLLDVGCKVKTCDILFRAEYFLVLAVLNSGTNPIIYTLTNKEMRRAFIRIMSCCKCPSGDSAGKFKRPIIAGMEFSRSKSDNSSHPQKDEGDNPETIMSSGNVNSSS
Chain of human S1P5 receptor (Q9H228 whole entry): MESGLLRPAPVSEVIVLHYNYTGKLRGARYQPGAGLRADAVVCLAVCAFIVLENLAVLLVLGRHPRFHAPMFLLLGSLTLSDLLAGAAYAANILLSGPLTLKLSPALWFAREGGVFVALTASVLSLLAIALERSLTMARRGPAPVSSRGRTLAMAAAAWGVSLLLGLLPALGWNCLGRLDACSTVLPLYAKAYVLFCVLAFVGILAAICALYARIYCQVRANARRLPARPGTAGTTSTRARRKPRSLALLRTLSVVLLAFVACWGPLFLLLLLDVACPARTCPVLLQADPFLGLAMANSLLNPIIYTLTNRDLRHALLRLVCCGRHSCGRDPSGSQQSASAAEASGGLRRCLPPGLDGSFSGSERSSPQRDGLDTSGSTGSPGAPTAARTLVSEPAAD

For the compound `O=C(O)CCN1CCC2(CC1)COc1cc(/C=C/c3ccccc3F)ccc12` [Compound 171, 3-{6-[(E)-2-(2-Fluorophenyl)ethenyl]-2H-spiro[1-benzofuran-3,4′-piperidine]-1′-yl}propanoic acid hydrochloride], the EC50 was greater than 3.16 µM at human S1P1 and greater than 10 µM at human S1P3 receptor. Moreover, on human S1P5 receptor, the “S1P5 pEC50” value came out at 6.5.

As for `O=C(O)CCN1CCC2(CC1)COc1cc(C3CC3c3c(Cl)cccc3Cl)ccc12` (stereo not drawn) [Compound 178, 3-{6-[2-(2,6-Dichlorophenyl)cyclopropyl]-2H-spiro[1-benzo-furan-3,4′-piperidine]-1′-yl}propanoic acid hydrochloride], the EC50 at human S1P1 is greater than 3.16 µM; on human S1P3 receptor, 3.16 µM. In addition, the “S1P5 pEC50” value at human S1P5 receptor was 7.1.

Consider `CCc1ccc(Cl)c(C2CC2c2ccc3c(c2)OCC32CCN(CCC(=O)O)CC2)c1` (stereo not drawn) [Compound 182, 3-{6-[2-(2-Chloro-5-ethylphenyl)cyclopropyl]-2H-spiro[1-benzofuran-3,4′-piperidine]-1′-yl}propanoic acid hydrochloride], for which the EC50 is greater than 3.16 µM at human S1P1 and greater than 10 µM on human S1P3 receptor. For the same compound, the “S1P5 pEC50” value at human S1P5 receptor amounted to 7.4.

Consider `O=C(O)CCN1CCC2(CC1)COc1cc(Oc3c(Cl)cccc3Cl)ccc12` [Compound 248, 3-[6-(2,6-Dichlorophenoxy)-2H-spiro[1-benzofuran-3,4′-piperidine]-1′-yl]propanoic acid hydrochloride], for which the EC50 is greater than 3.16 µM at human S1P1 and greater than 10 µM on human S1P3 receptor. Also, the “S1P5 pEC50” value on human S1P5 receptor was found to be 6.5.
